Experimental data as given in patent US9643967B2, “Pyrrolo[3,2-c]pyridine derivatives as TLR inhibitors” (TAKEDA PHARMACEUTICAL COMPANY LIMITED, priority 2013, dated 2017).
Where two headings read alike, the source gives them in different places.

Biological target: T1, mTLR7 (Mus musculus, UniProt P58681)
T1 construct: Splenocytes isolated from male C57/BL6 mice; from tissue; host or cells: splenocytes from the spleen of male C57BL/6 mice
T1 sequence (P58681 27-1050): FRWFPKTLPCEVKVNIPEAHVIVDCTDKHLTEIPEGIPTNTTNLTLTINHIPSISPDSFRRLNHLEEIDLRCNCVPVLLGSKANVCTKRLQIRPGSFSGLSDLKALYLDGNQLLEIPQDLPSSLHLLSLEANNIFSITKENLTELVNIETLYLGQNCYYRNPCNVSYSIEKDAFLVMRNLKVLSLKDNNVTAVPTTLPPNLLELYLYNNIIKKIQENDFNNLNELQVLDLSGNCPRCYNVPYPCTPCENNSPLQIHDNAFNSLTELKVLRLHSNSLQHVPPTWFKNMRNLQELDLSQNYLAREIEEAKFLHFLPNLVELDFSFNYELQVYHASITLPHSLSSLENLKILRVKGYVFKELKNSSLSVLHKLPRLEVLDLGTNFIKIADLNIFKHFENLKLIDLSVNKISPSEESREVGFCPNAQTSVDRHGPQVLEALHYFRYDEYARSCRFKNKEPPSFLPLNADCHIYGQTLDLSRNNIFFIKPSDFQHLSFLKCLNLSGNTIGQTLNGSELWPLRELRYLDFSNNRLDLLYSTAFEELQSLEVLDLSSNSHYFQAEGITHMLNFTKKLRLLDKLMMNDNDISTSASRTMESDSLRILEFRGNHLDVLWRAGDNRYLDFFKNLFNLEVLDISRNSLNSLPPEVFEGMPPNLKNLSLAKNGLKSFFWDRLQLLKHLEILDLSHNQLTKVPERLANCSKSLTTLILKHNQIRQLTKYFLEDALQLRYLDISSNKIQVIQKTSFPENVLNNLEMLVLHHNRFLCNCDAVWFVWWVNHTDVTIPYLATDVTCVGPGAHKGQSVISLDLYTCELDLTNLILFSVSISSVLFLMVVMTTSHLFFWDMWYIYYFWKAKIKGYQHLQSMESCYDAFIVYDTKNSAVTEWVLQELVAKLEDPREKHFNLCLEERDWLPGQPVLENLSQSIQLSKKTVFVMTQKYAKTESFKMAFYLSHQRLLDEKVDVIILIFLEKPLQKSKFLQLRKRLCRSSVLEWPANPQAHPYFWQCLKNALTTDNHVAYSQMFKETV
Test: mTLR7 antagonism (IL-6 and TNF-α release assay) in mouse splenocytes, R0006/DOTAP stimulated
Format: cell-based
Description: mTLR9 and mTLR7 Antagonism (Cytokine Release Assay) in Mouse Splenocytes
TLR7 ligand R0006 (IDT, 5′-rU*rU*rG*rU*rU*rG*rU*rU*rG*rU*rU*rG*rU*rU*rG*rU*rU*rG*rU*rU-3′ (SEQ ID NO:1)), Liposomal transfection reagent—DOTAP (Roche, Cat. No. 11202375001), TLR9 ligand CpG ODN2006 (Sequence: T*C*G*T*C*G*T*T*T*T*G*T*C*G*T*T*T*T*G*T*C*G*T*T; *=phosphorothioate (SEQ ID NO:2)) DMSO (Sigma, D2650), RPMI Powder (Sigma, R6504), Fetal Bovine Serum (Gibco, 10270), Dulbecco's Phosphate Buffered Saline (Sigma, D1408), 96 well plate (Flat bottom, Costar 3599), ELISA kit for IL-6 (EBioscience, 88-7064-77 and TNFa (EBioscience, 88-7346-88), MACS Buffer (AutoMACS Rinsing Solution (Miltenyl Biotec, 130-091-222)+0.05% BSA), RBC lysis buffer (0.85% NH4Cl), 40 μm cell strainer (BD Falcon, 352340) Method: A. Isolation of Mouse Splenocytes
Mouse spleen was isolated from C57BL6 mouse and stored in 1× chilled PBS buffer until further processed. Spleen was transferred to a sterile petriplate and chopped in to 5-6 pieces in presence of MACS buffer (100 μl) with the help of fresh surgical blade and crushed with flat plunger of a sterile syringe. A uniform suspension was prepared by passing cells through a 40 μm cell strainer. Cells were centrifuged at 450×g for 5 minutes at 4° C., supernatant was discarded and pellet dislodged gently, resuspended in 2 ml of pre-warmed (37° C.) RBC lysis buffer at room temperature with continuous gentle mixing with 1 ml pipette. Lysis buffer was neutralized with 12 ml of chilled MACS buffer and cells were passed through 40 μm cell strainer. Cell suspension was collected in 15 ml MACS buffer and centrifuged at 450×g for 5 minutes at 4° C. Pellet was resuspended in 15 ml MACS buffer and centrifuged at 400×g for 5 minutes. Cells were resuspended in 10 ml of RPMI complete medium and viability was estimated by Trypan blue method.
mTLR7 Antagonism (IL-6 and TNF-α Release Assay):
1 mg/ml stock of R0006 was prepared in sterile, endotoxin-free water. R0006 stock was diluted 10 fold with DOTAP and incubated for 30 minutes to form liposome complex (100 μg/ml of R0006). This complex was further diluted 10 fold with incomplete RPMI media (10 μg/ml of R0006) to achieve the final agonist concentration of 1 μg/ml. DOTAP alone was diluted 10 fold in incomplete RPMI media. NCEs were added in a concentration range of 30 μM to 1 nM in respective wells of assay plate, assay medium containing 0.3% DMSO were added to control wells. 0.2 million splenocytes were added to all the wells and incubated at 37° C. in 5% CO2 incubator for 30 minutes. 1 μg/ml of respective agonist was added to all the wells except those were assigned as negative controls and mixed thoroughly. DOTAP was added to negative control wells and incubated overnight at 37° C./5% CO2. The plate was centrifuged at 450×g for 5 minutes at room temperature and the supernatant was collected. ELISA was performed as per manufacturer's protocol. S/B Ratio, % Activity and % Inhibition was calculated using MS Excel. IC50 and inhibition curve was generated using Graph Pad Prism.

[1] = 1 μM, TNF-α release, mouse splenocytes, read-out: mTLR7 inhibitory activity (% at 1 μM), TNF-α
[2] = 1 μM, IL-6 release, mouse splenocytes, read-out: mTLR7 inhibitory activity (% at 1 μM), IL-6

| SMILES | inhibition at 1 µM [1] | inhibition at 1 µM [2] | inhibition at 1 µM (read-out: mTLR7 inhibitory activity (% at 1 μM), IL-6) | inhibition at 1 µM (read-out: mTLR7 inhibitory activity (% at 1 μM), TNF-α) |
| --- | --- | --- | --- | --- |
| CC(C)N1CCN(c2ccc(-c3nccc4[nH]c(CN5CCC[C@@H]5C(=O)O)cc34)cc2)CC1 [Example A74, (2R)-1-[[4-[4-(4-isopropylpiperazin-1-yl)phenyl]-1H-pyrrolo[3,2-c]pyridin-2-yl]methyl]pyrrolidine-2-carboxylic acid] | 32% | – | – | – |
| CC(C)N1CCN(C2CCC(c3nccc4[nH]c(CN5CCOCC5)cc34)CC2)CC1 (centres unmarked) [Example A80, 4-[[4-[4-(4-isopropylpiperazin-1-yl)cyclohexyl]-1H-pyrrolo[3,2-c]pyridin-2-yl]methyl]morpholine] | 16% | 18% | – | – |
| c1cc2[nH]c(CN3CCOCC3)cc2c(-c2ccc(N3CCN(C4COC4)CC3)cc2)n1 [Example A81, 4-[[4-[4-[4-(oxetan-3-yl)piperazin-1-yl]phenyl]-1H-pyrrolo[3,2-c]pyridin-2-yl]methyl]morpholine] | 24% | 25% | – | – |
| CC(C)N1CCN(c2ccc(-c3nccc4[nH]c(C(=O)N5CCOCC5)cc34)cc2)CC1 [Example A82, [4-[4-(4-isopropylpiperazin-1-yl)phenyl]-1H-pyrrolo[3,2-c]pyridin-2-yl]-morpholino-methanone] | – | – | 86% | 24% |
| CC(C)N1CCN(c2ccc(-c3nccc4[nH]c(CCN5CCOCC5)cc34)cc2)CC1 [Example B1, 4-[2-[4-[4-(4-isopropylpiperazin-1-yl)phenyl]-1H-pyrrolo[3,2-c]pyridin-2-yl]ethyl]morpholine] | 100% | 100% | – | – |
| CN1CCN(c2ccc(-c3nccc4[nH]c(CCN5CCOCC5)cc34)cc2)CC1 [Example B2, 4-[2-[4-[4-(4-methylpiperazin-1-yl)phenyl]-1H-pyrrolo[3,2-c]pyridin-2-yl]ethyl]morpholine] | 100% | 100% | – | – |
| Cc1cc2[nH]c(CCN3CCOCC3)cc2c(-c2ccc(N3CCN(C(C)C)CC3)cc2)n1 [Example B3, 4-[2-[4-[4-(4-isopropylpiperazin-1-yl)phenyl]-6-methyl-1H-pyrrolo[3,2-c]pyridin-2-yl]ethyl]morpholine] | 100% | – | – | – |
| Cc1cc2[nH]c(CCN3CCOCC3)cc2c(-c2ccc(N3CCN(C)CC3)cc2)n1 [Example B4, 4-[2-[6-methyl-4-[4-(4-methylpiperazin-1-yl)phenyl]-1H-pyrrolo[3,2-c]pyridin-2-yl]ethyl]morpholine] | 100% | – | – | – |
| Cc1cc2[nH]c(CCN3CCCCC3)cc2c(-c2ccc(N3CCN(C(C)C)CC3)cc2)n1 [Example B5, 4-[4-(4-isopropylpiperazin-1-yl)phenyl]-6-methyl-2-[2-(1-piperidyl)ethyl]-1H-pyrrolo[3,2-c]pyridine] | 100% | – | – | – |
| Cc1nc(-c2ccc(N3CCN(C(C)C)CC3)cc2)c2cc(CCN3CCOCC3)[nH]c2c1C [Example B6, 4-[2-[4-[4-(4-isopropylpiperazin-1-yl)phenyl]-6,7-dimethyl-1H-pyrrolo[3,2-c]pyridin-2-yl]ethyl]morpholine] | 100% | 100% | – | – |
| Cc1nc(-c2ccc(N3CCN(C)CC3)cc2)c2cc(CCN3CCOCC3)[nH]c2c1C [Example B7, 4-[2-[6,7-dimethyl-4-[4-(4-methylpiperazin-1-yl)phenyl]-1H-pyrrolo[3,2-c]pyridin-2-yl]ethyl]morpholine] | 100% | – | – | – |
| CCN1CCN(c2ccc(-c3nc(C)c(C)c4[nH]c(CCN5CCOCC5)cc34)cc2)CC1 [Example B8, 4-[2-[4-[4-(4-ethylpiperazin-1-yl)phenyl]-6,7-dimethyl-1H-pyrrolo[3,2-c]pyridin-2-yl]ethyl]morpholine] | 88% | – | – | – |
| Cc1nc(-c2ccc(N3CCN(C(C)C)CC3)cc2)c2cc(CCN3CCCC3)[nH]c2c1C [Example B10, 4-[4-(4-isopropylpiperazin-1-yl)phenyl]-6,7-dimethyl-2-(2-pyrrolidin-1-ylethyl)-1H-pyrrolo[3,2-c]pyridine] | 100% | 100% | – | – |
| Cc1cc2c(cc(CCN3CCOCC3)n2C)c(-c2ccc(N3CCN(C(C)C)CC3)cc2)n1 [Example B11, 4-[2-[4-[4-(4-isopropylpiperazin-1-yl)phenyl]-1,6-dimethyl-pyrrolo[3,2-c]pyridin-2-yl]ethyl]morpholine] | 100% | 100% | – | – |
| Cc1cc2c(cc(CCN3CCOCC3)n2C)c(-c2ccc(N3CCN(C(C)C)CC3)c(F)c2)n1 [Example B14, 4-[2-[4-[3-fluoro-4-(4-isopropylpiperazin-1-yl)phenyl]-1,6-dimethyl-pyrrolo[3,2-c]pyridin-2-yl]ethyl]morpholine] | 100% | 100% | – | – |
| Cc1cc2c(cc(CCN3CCOCC3)n2C)c(-c2ccc(N3CCN(C(C)C)CC3)cc2C)n1 [Example B15, 4-[2-[4-[4-(4-isopropylpiperazin-1-yl)-2-methyl-phenyl]-1,6-dimethyl-pyrrolo[3,2-c]pyridin-2-yl]ethyl]morpholine] | 83% | 88% | – | – |
| Cc1cc2c(cc(CCN3CCOCC3)n2C)c(-c2ccc(N3CCN(C(C)C)CC3)c(C)c2)n1 [Example B16, 4-[2-[4-[4-(4-isopropylpiperazin-1-yl)-3-methyl-phenyl]-1,6-dimethyl-pyrrolo[3,2-c]pyridin-2-yl]ethyl]morpholine] | 100% | 100% | – | – |
| Cc1cc2c(cc(CCN3CCOCC3)n2C)c(-c2ccc(N3CCN(C(C)C)CC3)cc2C(F)(F)F)n1 [Example B17, 4-[2-[4-[4-(4-isopropylpiperazin-1-yl)-2-(trifluoromethyl)phenyl]-1,6-dimethyl-pyrrolo[3,2-c]pyridin-2-yl]ethyl]morpholine] | 90% | 93% | – | – |
| Cc1cc2c(cc(CCN3CCOCC3)n2C)c(-c2ccc(N3CCN(C(C)C)CC3)c(C(F)(F)F)c2)n1 [Example B18, 4-[2-[4-[4-(4-isopropylpiperazin-1-yl)-3-(trifluoromethyl)phenyl]-1,6-dimethyl-pyrrolo[3,2-c]pyridin-2-yl]ethyl]morpholine] | 100% | 100% | – | – |
